This note sets out measurements from ChEMBL document CHEMBL1156547, “10-Hydroxy-7,8-dihydropyrazino[1',2':1,5]pyrrolo[2,3-d]pyridazine-1,9(2H,6H)-diones: potent, orally bioavailable HIV-1 integrase strand-transfer inhibitors with activity against integrase mutants” (Bioorg Med Chem Lett, 2008).

Data set [1] has as its system Human immunodeficiency virus 1. The data set is described as follows: Ratio of IC50 for HIV1 3B with integrase N155S mutation to IC50 for wild type HIV1 3B by single-cycle viral replication assay in presence of 10% FBS. Type of data set: functional.
Data set [2] in a line: Oral bioavailability in Sprague-Dawley rat at 10 mg/kg. The format is ADME, organism-based. To be noted: in vivo.
The nature of data set [3]: Clearance in Sprague-Dawley rat at 2 mg/kg, iv. The format is ADME, organism-based. On the set-up: dose 2 mg/kg, route intravenous. The following applies: in vivo.
In data set [4] the test system is Human immunodeficiency virus 1. The data set is described as follows: Ratio of IC50 for HIV1 3B with integrase F121Y mutation to IC50 for wild type HIV1 3B by single-cycle viral replication assay in presence of 10% FBS. The format is functional.
Data set [5] can be described thus: Plasma half life in Sprague-Dawley rat at 2 mg/kg, iv. The format is ADME, organism-based. On the set-up: dose 2 mg/kg, route intravenous.
The test system of data set [6] is Human immunodeficiency virus 1. Briefly: Ratio of IC50 for HIV1 3B with integrase T66I/S153Y mutation to IC50 for wild type HIV1 3B by single-cycle viral replication assay in presence of 10% FBS. The format is functional.
The nature of data set [7]: Volume of distribution in Sprague-Dawley rat at 2 mg/kg, iv. On the set-up: dose 2 mg/kg, route intravenous. Type of data set: ADME, organism-based. The following applies: in vivo.
In data set [8] the test system is Human immunodeficiency virus 1. The data set is described as follows: Antiviral activity against wild type HIV1 3B in human P4/R5 cells assessed as beta-galactosidase activity by single-cycle viral replication assay in presence of 10% FBS. Type of data set: functional, organism-based. The following applies: Human immunodeficiency virus 1, 3B.
The subject of data set [9] is Human immunodeficiency virus 1. The data set is described as follows: Antiviral activity against HIV1 3B in human MT4 cells assessed as reduction in p24 antigen levels after 72 hrs by multi-cycle viral replication assay in presence of 10% FBS. The format is functional.
Data set [10] deals with Human immunodeficiency virus 1. The data set is described as follows: Antiviral activity against HIV1 3B in human MT4 cells assessed as reduction in p24 antigen levels after 72 hrs by multi-cycle viral replication assay in presence of 50% normal human serum. Type of data set: functional.
Data set [11] in a line: Oral bioavailability in Beagle dog. Type of data set: ADME, organism-based, Canis lupus familiaris. The following applies: in vivo.
Another data set has as its system Canis familiaris. The data set is described as follows: Half life in iv dosed Beagle dog. To be noted: in vivo. Type of data set: ADME, organism-based, Canis lupus familiaris.
The target in data set [12] is Human immunodeficiency virus type 1 integrase (Human immunodeficiency virus 1, UniProt Q7ZJM1). The data set is described as follows: Inhibition of HIV1 integrase strand transfer activity.
Sequence of Human immunodeficiency virus type 1 integrase (Q7ZJM1 whole entry): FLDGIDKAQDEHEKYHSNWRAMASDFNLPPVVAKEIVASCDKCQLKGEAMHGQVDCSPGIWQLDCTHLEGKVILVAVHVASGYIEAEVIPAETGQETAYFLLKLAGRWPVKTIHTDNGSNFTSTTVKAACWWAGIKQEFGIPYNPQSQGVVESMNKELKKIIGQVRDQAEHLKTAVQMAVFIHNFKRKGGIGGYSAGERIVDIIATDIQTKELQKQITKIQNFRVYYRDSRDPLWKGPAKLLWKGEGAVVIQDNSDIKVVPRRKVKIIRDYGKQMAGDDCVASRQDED
Data set [13] can be described thus: Clearance in Beagle dog. Type of data set: ADME, organism-based, Canis lupus familiaris. To be noted: in vivo.
The subject of data set [14] is Human immunodeficiency virus 1. Briefly: Antiviral activity against HIV1 with integrase Q148K mutation relative to wild type HIV1. The format is functional.

By bioavailability is commonly meant the share of a dose that reaches the circulation, judged against a reference dose that is usually intravenous. Lower therefore signals poor availability. A word on the clearance: it is the rate of elimination divided by the concentration. Lower therefore signals a low capacity for elimination. By half-life is commonly meant the time needed for the level to fall by half in the phase considered. A lower half-life goes with rapid decline. In general, Vd refers to a proportionality between amount in the body and measured concentration, not a real space. As usually defined, the IC50 is the concentration at which inhibition is half-maximal. A word on the IC95: it is the point of the concentration-response curve where the effect stands at 95%. Take `CC(C)N1C[C@H](C)n2c(c(O)c3c(=O)n(Cc4ccc(F)c(Cl)c4)ncc32)C1=O`: the “Ratio IC50” value in [1] came out at 3; in [4], 1; in data set [6], 1. In data set [2], the bioavailability was found to be 14%. The same molecule yielded a clearance in data set [3] of 0.0102 L/h/kg. The molecule also had a half-life in data set [5] of 13 h. The molecule also yielded a Vd in data set [7] of 0.2 L/kg. The IC50 in [8] is 0.028 µM. In addition, the “Antiviral activity (p24 reduction)” value in [9] turned out to be 30 nM. The IC95 in data set [10] was found to be 0.22 µM.
Turning to `Cc1nn(Cc2ccc(F)cc2)c(=O)c2c(O)c3n(c12)[C@@H](C)CN(C(C)C)C3=O`, the “Ratio IC50” value in data set [1] came out at 2; in data set [4], 1; in [6], 1. The bioavailability in data set [2] is 17%; in data set [11], less than 5%. Besides, the clearance in data set [3] worked out at 0.18 L/h/kg; in data set [13], 0.6 L/h/kg. In data set [5], this molecule showed a half-life of 5.3 h. Besides, the Vd in data set [7] stood at 0.3 L/kg. Besides, the IC50 is 0.01 µM in [8] and no more than 0.01 µM in data set [12]. The molecule further had a T1/2 in the data set on Canis familiaris of 1 h. Moreover, the “Antiviral activity (p24 reduction)” value in data set [9] was determined as 16 nM. The IC95 in [10] is 0.035 µM. The “fold change (FC)” value in data set [14] was determined as 3.
`CCN1C[C@H](C)n2c(c(O)c3c(=O)n(Cc4ccc(F)cc4)ncc32)C1=O`: the “Ratio IC50” value in data set [1] amounted to 27; in data set [4] it was 5; in [6] it was 1. Moreover, in [2], the bioavailability was determined as 31%. In addition, in [3], the clearance turned out to be 0.03 L/h/kg. The half-life in data set [5] is 6 h. In data set [7], this molecule returned a Vd of 0.2 L/kg. In data set [8], the IC50 turned out to be 0.016 µM. In addition, the “Antiviral activity (p24 reduction)” value in data set [9] is 24 nM. Besides, in [10], the IC95 worked out at 0.046 µM.
Consider `CCN1C[C@@H](C)n2c(c(O)c3c(=O)n(Cc4ccc(F)cc4)ncc32)C1=O`, for which the results for the “Ratio IC50” value in data set [1], in data set [4] and in data set [6] were 10, 8 and 9, respectively. Moreover, the IC50 in [8] turned out to be 0.052 µM. For the same molecule, in data set [9], the “Antiviral activity (p24 reduction)” value is 250 nM. For the same molecule, the IC95 in data set [10] came to 0.5 µM.
As to `CCN1C[C@H](C)n2c(c(O)c3c(=O)n(Cc4ccc(F)cc4)nc(C)c32)C1=O`, the “Ratio IC50” value came out at 6 in data set [1], 1 in data set [4] and 1 in data set [6]. Besides, the bioavailability in [2] is 7%. For the same molecule, the clearance in [3] is 1.02 L/h/kg. The molecule also had a half-life in data set [5] of 6.2 h. This molecule gave a Vd in data set [7] of 2.6 L/kg. In [8], the IC50 amounted to 0.014 µM. Moreover, the “Antiviral activity (p24 reduction)” value in data set [9] is given as 17 nM. Besides, the IC95 in data set [10] is 0.04 µM.
On to `CN1CCn2c(c(O)c3c(=O)n(Cc4ccc(F)cc4)ncc32)C1=O`, for which the “Ratio IC50” value in data set [1] was found to be 53; in data set [4], 11; in data set [6], 7. The IC50 in [8] turned out to be 0.072 µM. Further, the “Antiviral activity (p24 reduction)” value in data set [9] is listed as 120 nM. For the same molecule, the IC95 in [10] was 0.38 µM.
As to `Cc1nn(Cc2ccc(F)cc2)c(=O)c2c(O)c3n(c12)CCN(C)C3=O`, the “Ratio IC50” value in [1] came to 48; in data set [4], 10; in data set [6], 8. In addition, in [8], the IC50 is 0.021 µM. Also, in [9], the “Antiviral activity (p24 reduction)” value turned out to be 43 nM. Moreover, in data set [10], the IC95 amounted to 0.13 µM.
Take `CC(C)N1C[C@H](C)n2c(c(O)c3c(=O)n(Cc4ccc(F)cc4)ncc32)C1=O`: the entries for the “Ratio IC50” value in data set [1], in data set [4] and in [6] were 6, 2 and 1, respectively. For the same molecule, the bioavailability in data set [2] is 21%; in data set [11] it was less than 5%. The clearance in [3] stood at 0.0102 L/h/kg; in data set [13] it was 0.6 L/h/kg. In data set [5], this molecule had a half-life of 12 h. In [7], this molecule showed a Vd of 0.2 L/kg. Further, the results for the IC50 in [8] and in data set [12] were 0.019 µM and no more than 0.01 µM, respectively. Moreover, in the data set on Canis familiaris, the T1/2 was 1 h. For the same molecule, in data set [9], the “Antiviral activity (p24 reduction)” value is 13 nM. Also, the IC95 in data set [10] was determined as 0.026 µM. Besides, the “fold change (FC)” value in data set [14] amounted to 45.
Consider `Cc1nn(Cc2ccc(F)cc2)c(=O)c2c(O)c3n(c12)[C@H](C)CN(C)C3=O`, for which the “Ratio IC50” value in data set [1] was determined as 91; in data set [4] it was 9; in data set [6], 8. For the same molecule, the IC50 in [8] came out at 0.066 µM. In addition, the “Antiviral activity (p24 reduction)” value in data set [9] is 250 nM. Further, the IC95 in data set [10] was determined as 1 µM.
Consider `CCN1C[C@H](C)n2c(c(O)c3c(=O)n(Cc4ccc(F)c(Cl)c4)ncc32)C1=O`, for which the “Ratio IC50” value in data set [1] was 7; in data set [4], 2; in [6], 1. For the same molecule, in [2], the bioavailability came out at 13%. Moreover, the clearance in data set [3] stood at 0.0162 L/h/kg. In data set [5], the half-life was 9.5 h. In data set [7], this molecule showed a Vd of 0.3 L/kg. The IC50 in [8] is 0.019 µM. Also, in data set [9], the “Antiviral activity (p24 reduction)” value amounted to 31 nM. The IC95 in data set [10] came to 0.16 µM.
Regarding `CCN1CC(C)(C)n2c(c(O)c3c(=O)n(Cc4ccc(F)cc4)ncc32)C1=O`, the “Ratio IC50” value in [1] was 27; in data set [4], 10; in data set [6], 3. The same molecule had a bioavailability in data set [2] of 13%. In addition, the clearance in data set [3] was 0.0408 L/h/kg. Further, in data set [5], the half-life was 5.2 h. Besides, the Vd in [7] stood at 0.3 L/kg. For the same molecule, the IC50 in data set [8] amounted to 0.019 µM. Further, the “Antiviral activity (p24 reduction)” value in data set [9] is reported as 10 nM. Further, the IC95 in data set [10] is 0.03 µM.
Consider `Cc1nn(Cc2ccc(F)cc2)c(=O)c2c(O)c3n(c12)[C@@H](C)CN(C)C3=O`, for which the results for the “Ratio IC50” value in data set [1], in data set [4] and in data set [6] were 20, 4 and 2, respectively. Besides, in [8], the IC50 came out at 0.01 µM. Further, in data set [9], the “Antiviral activity (p24 reduction)” value is listed as 10 nM. Also, the IC95 in data set [10] came to 0.031 µM.
